Experimental data: patent publication US20240116985A1, “STAPLED PEPTIDES AND METHODS THEREOF” (priority 2020, published 2024)
Where two headings read alike, the source gives them in different places.

Key:
[1] = molecular target: T1, full-length beta-Catenin (Uniprot ID P35222) (Homo sapiens, UniProt P35222); test: Fluorescence polarization IC50 (beta-catenin / 5FAM-TCF4 10-53 competition); assay type: binding; conditions: fluorescence polarization; read-out: beta-Catenin FP IC50
T1 construct: 10 nM full-length beta-Catenin (Uniprot ID P35222)
T1 sequence (P35222 1-781): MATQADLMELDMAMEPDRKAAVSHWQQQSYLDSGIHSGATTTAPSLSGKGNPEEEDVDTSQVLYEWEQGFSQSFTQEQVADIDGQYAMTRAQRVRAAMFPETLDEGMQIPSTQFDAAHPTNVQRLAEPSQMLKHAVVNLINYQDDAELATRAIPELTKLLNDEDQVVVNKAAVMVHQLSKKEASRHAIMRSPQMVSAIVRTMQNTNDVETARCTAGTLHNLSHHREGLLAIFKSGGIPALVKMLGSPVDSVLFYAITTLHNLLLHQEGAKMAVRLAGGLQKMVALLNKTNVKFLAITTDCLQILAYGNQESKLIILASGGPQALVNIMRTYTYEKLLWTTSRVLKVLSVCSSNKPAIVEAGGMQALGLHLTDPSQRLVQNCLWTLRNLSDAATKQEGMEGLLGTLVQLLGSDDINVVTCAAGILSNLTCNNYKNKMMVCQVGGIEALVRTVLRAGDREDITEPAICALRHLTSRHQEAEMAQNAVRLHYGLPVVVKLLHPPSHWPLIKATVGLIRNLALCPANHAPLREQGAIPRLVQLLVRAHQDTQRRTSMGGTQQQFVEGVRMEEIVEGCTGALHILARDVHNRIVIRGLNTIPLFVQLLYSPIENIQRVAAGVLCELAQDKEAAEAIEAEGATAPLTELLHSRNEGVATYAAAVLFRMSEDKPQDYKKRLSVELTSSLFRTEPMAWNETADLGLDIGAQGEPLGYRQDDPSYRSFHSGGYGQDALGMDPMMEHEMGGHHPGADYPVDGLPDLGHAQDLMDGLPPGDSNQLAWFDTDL

[2] = molecular target: T2, beta-catenin/TCF4 engagement (Homo sapiens, UniProt P35222); test: Nano-BRET target engagement assay (B-cat-Halo & TCF4-Luc in HEK293 cells); assay type: cell-based; conditions: read-out: NanoBRET Abs IC50
T2 construct: expressed in transfected cells; host or cells: HEK293
T2 sequence (P35222 1-781): T1 sequence (P35222 1-781)

| SMILES | IC50 [1] [nM] | IC50 ([2]; absolute IC50) [nM] | IC50 [2] [nM] |
| --- | --- | --- | --- |
| CC(=O)N1CCC[C@]12CC=CCCCC1(CCCC=CCCCOC(=O)N3CC[C@@](C(=O)N[C@@H](Cc4ccccc4Cl)C(=O)N[C@@H](Cc4csc5ccccc45)C(=O)N[C@@H](CCC(N)=O)C(N)=O)(C3)NC(=O)[C@H](CC(N)=O)NC(=O)[C@H](Cc3ccccc3)NC(=O)[C@H](C)NC(=O)[C@H](C)NC(=O)[C@H](CC(=O)O)NC(=O)[C@H](CC(=O)O)NC1=O)NC(=O)[C@H](CC(C)(C)C)NC(=O)[C@H](CC(=O)S)NC2=O (stereo partly drawn) [I-1721, Ac-PL3-AspSH-Npg-B5-Asp-Asp-Ala-Ala-Phe-Asn-PyrS2-2C1F-BztA-Gln-NH2] | 139 | > 20000 |  |
| CC(=O)N1CCC[C@]12CC=CCCCC1(CCCC=CCCCOC(=O)N3CC[C@@](C(=O)N[C@@H](Cc4ccsc4)C(=O)N[C@@H](Cc4csc5ccccc45)C(=O)N[C@@H](CCC(N)=O)C(N)=O)(C3)NC(=O)[C@H](CC(N)=O)NC(=O)[C@H](Cc3ccccc3)NC(=O)[C@H](C)NC(=O)[C@H](C)NC(=O)[C@H](CN(C)CC(=O)O)NC(=O)[C@H](CC(=O)O)NC1=O)NC(=O)[C@H](CC(C)(C)C)NC(=O)[C@H](CC(=O)O)NC2=O (stereo partly drawn) [I-1636, Ac-PL3-Asp-Npg-B5-Asp-[Me]GA-Ala-Ala-Phe-Asn-PyrS2-3Thi-BztA-Gln-NH2] | 17 | > 20000 |  |
| CC(=O)N1CCC[C@]12CC=CCCCC1(CCCC=CCCCOC(=O)N3CC[C@@](C(=O)N[C@@H](Cc4ccsc4)C(=O)N[C@@H](Cc4csc5ccccc45)C(=O)N[C@H](C)C(N)=O)(C3)NC(=O)[C@H](CC(C)C)NC(=O)[C@H](Cc3ccccc3)NC(=O)[C@@H](C)NC(=O)[C@H](C)NC(=O)[C@H](Cc3cccc(C(=O)O)c3)NC(=O)[C@H](CC(=O)O)NC1=O)NC(=O)[C@H](CC(C)(C)C)NC(=O)[C@H](CC(=O)O)NC2=O (stereo partly drawn) [I-2100, Ac-PL3-Asp-Npg-B5-Asp-3COOHF-Ala-dAla-Phe-Leu-PyrS2-3Thi-BztA-dAla-NH2] | 86 |  | > 20000 |
| CC(=O)N1CCC[C@]12CC=CCCCC1(CCCC=CCCCOC(=O)N3CC[C@@](C(=O)N[C@@H](Cc4ccsc4)C(=O)N[C@@H](Cc4csc5ccccc45)C(=O)N[C@@H](CCC(N)=O)C(N)=O)(C3)NC(=O)[C@H](CC(N)=O)NC(=O)[C@H](Cc3ccccc3)NC(=O)[C@H](C)NC(=O)[C@H](C)NC(=O)[C@H](CC(N)=O)NC(=O)[C@H](CC(N)=O)NC1=O)NC(=O)[C@H](CC(C)(C)C)NC(=O)[C@H](CC(=O)O)NC2=O (stereo partly drawn) [I-1555, Ac-PL3-Asp-Npg-B5-Asn-Asn-Ala-Ala-Phe-Asn-PyrS2-3Thi-BztA-Gln-NH2] | 180 | 29300 |  |
| CC(=O)N1CCC[C@]12CC=CCCCC1(CCCC=CCCCOC(=O)N3CC[C@@](C(=O)N[C@@H](Cc4ccccc4C(F)(F)F)C(=O)N[C@@H](Cc4ccc(F)c(Br)c4)C(=O)N[C@@H](CO)C(N)=O)(C3)NC(=O)[C@H](CC(C)C)NC(=O)[C@H](Cc3ccccc3)NC(=O)[C@H](C)NC(=O)[C@H](C)NC(=O)[C@H](Cc3cccc(C(=O)O)c3)NC(=O)[C@H](CC(=O)O)NC1=O)NC(=O)[C@H](CC(C)(C)C)NC(=O)[C@H](CC(=O)O)NC2=O (stereo partly drawn) [I-2289, Ac-PL3-Asp-Npg-B5-Asp-3COOHF-Ala-Ala-Phe-Leu-PyrS2-2F3MeF-3Br4FF-Ser-NH2] | 8 | 9000 |  |
| CC(=O)N1CCC[C@]12CC=CCCCC1(CCCC=CCCCOC(=O)N3CC[C@@](C(=O)N[C@@H](Cc4ccsc4)C(=O)N[C@@H](Cc4csc5ccccc45)C(=O)N[C@@H](CCC(N)=O)C(N)=O)(C3)NC(=O)[C@H](CC(C)C)NC(=O)[C@H](Cc3cccc(C(=O)O)c3)NC(=O)[C@H](C)NC(=O)[C@H](C)NC(=O)[C@H](Cc3ccc(O)cc3)NC(=O)[C@H](CC(=O)O)NC1=O)NC(=O)[C@H](CC(C)(C)C)NC(=O)[C@H](CC(=O)O)NC2=O (stereo partly drawn) [I-2126, Ac-PL3-Asp-Npg-B5-Asp-Tyr-Ala-Ala-3COOHF-Leu-PyrS2-3Thi-BztA-Gln-NH2] | 68 |  | 29500 |
| CC(=O)N1CCC[C@]12CC=CCCCC1(CCCC=CCCCOC(=O)N3CC[C@@](C(=O)N[C@@H](Cc4ccsc4)C(=O)N[C@@H](Cc4csc5ccccc45)C(=O)N[C@@H](CCC(N)=O)C(N)=O)(C3)NC(=O)[C@H](CC(C)C)NC(=O)[C@H](Cc3ccccc3)NC(=O)[C@H](C)NC(=O)[C@H](C)NC(=O)[C@H](CCN(CC(=O)O)C(=O)Cc3c(F)c(F)c(F)c(F)c3F)NC(=O)[C@H](CC(=O)O)NC1=O)NC(=O)[C@H](CC(C)(C)C)NC(=O)[C@H](CC(=O)O)NC2=O (stereo partly drawn) [I-2251, Ac-PL3-Asp-Npg-B5-Asp-[PfPhAc]GAbu-Ala-Ala-Phe-Leu-PyrS2-3Thi-BztA-Gln-NH2] | 15 | 6400 |  |
| CC(=O)N1CCC[C@]12CC=CCCCC1(CCCC=CCCCOC(=O)N3CC[C@@](C(=O)N[C@@H](Cc4ccsc4)C(=O)N[C@@H](Cc4csc5ccccc45)C(=O)N[C@@H](CCC(=O)N4CCC(N5CCN(C)CC5)CC4)C(N)=O)(C3)NC(=O)[C@H](CC(C)C)NC(=O)[C@H](Cc3ccccc3)NC(=O)[C@H](C)NC(=O)[C@H](C)NC(=O)[C@H](CN(CC(=O)O)CC(F)(F)F)NC(=O)[C@H](CC(=O)O)NC1=O)NC(=O)[C@H](CC(C)(C)C)NC(=O)[C@H](CC(=O)O)NC2=O (stereo partly drawn) [I-1801, Ac-PL3-Asp-Npg-B5-Asp-TfeGA-Ala-Ala-Phe-Leu-PyrS2-3Thi-BztA-[4MePpzPip]GlnR-NH2] | 7 | 17500 |  |
| CC(=O)N1CCC[C@]12CCCCCCC1(CCCCCCCCOC(=O)N3CC[C@@](C(=O)N[C@@H](Cc4ccccc4C(F)(F)F)C(=O)N[C@@H](Cc4csc5ccccc45)C(=O)N[C@@H](CCC(N)=O)C(N)=O)(C3)NC(=O)[C@H](CC(C)C)NC(=O)[C@H](Cc3ccccc3)NC(=O)[C@H](C)NC(=O)[C@H](C)NC(=O)[C@H](CN(CC(=O)O)CC(F)(F)F)NC(=O)[C@H](CC(=O)O)NC1=O)NC(=O)[C@H](CC(C)(C)C)NC(=O)[C@H](CC(=O)O)NC2=O (stereo partly drawn) [I-1714, Ac-PL3-Asp-Npg-B5-Asp-TfeGA-Ala-Ala-Phe-Leu-PyrS2-2F3MeF-BztA-Gln-NH2] | 372 | 28600 |  |
| CC(=O)N1CCC[C@]12CC=CCCCC1(CCCC=CCCCOC(=O)N3CC[C@@](C(=O)N[C@@H](Cc4ccsc4)C(=O)N[C@@H](Cc4csc5ccccc45)C(=O)N[C@@H](CCC(N)=O)C(N)=O)(C3)NC(=O)[C@H](CC(C)C)NC(=O)[C@H](Cc3ccccc3)NC(=O)[C@H](C)NC(=O)[C@H](C)NC(=O)[C@H](CC(=O)O)NC(=O)[C@H](CC(=O)O)NC1=O)NC(=O)[C@H](CC(C)(C)C)NC(=O)[C@H](CC(N)=O)NC2=O (stereo partly drawn) [I-1221, Ac-PL3-Asn-Npg-B5-Asp-Asp-Ala-Ala-Phe-Leu-PyrS2-3Thi-BztA-Gln-NH2] | 14 | 23400 |  |
| CC(=O)N1CCC[C@]12CC=CCCCC1(CCCC=CCCCOC(=O)N3CC[C@@](C(=O)N[C@@H](Cc4ccsc4)C(=O)N[C@@H](Cc4csc5ccccc45)C(=O)N[C@@H](CCC(N)=O)C(N)=O)(C3)NC(=O)[C@H](CC(N)=O)NC(=O)[C@H](Cc3cccc(C(=O)O)c3)NC(=O)[C@H](C)NC(=O)[C@H](C)NC(=O)[C@H](Cc3c[nH]cn3)NC(=O)[C@H](CC(=O)O)NC1=O)NC(=O)[C@H](CC(C)(C)C)NC(=O)[C@H](CC(=O)O)NC2=O (stereo partly drawn) [I-2119, Ac-PL3-Asp-Npg-B5-Asp-His-Ala-Ala-3COOHF-Asn-PyrS2-3Thi-BztA-Gln-NH2] | 29 |  | > 20000 |
| CCN(CC(=O)O)C[C@@H]1NC(=O)[C@H](CC(=O)O)NC(=O)C2(CCCC=CCCCCCC[C@@](C)(C(=O)N[C@@H](Cc3ccsc3)C(=O)N[C@@H](Cc3csc4ccccc34)C(=O)N[C@@H](CCC(N)=O)C(N)=O)NC(=O)[C@H](CC(N)=O)NC(=O)[C@H](Cc3ccccc3)NC(=O)[C@H](C)NC(=O)[C@H](C)NC1=O)CCCC=CC[C@]1(CCCN1C(C)=O)C(=O)N[C@@H](CC(=O)O)C(=O)N[C@@H](CC(C)(C)C)C(=O)N2 (stereo partly drawn) [I-1628, Ac-PL3-Asp-Npg-B5-Asp-[Et]GA-Ala-Ala-Phe-Asn-S8-3Thi-BztA-Gln-NH2] | 18 | > 20000 |  |
| CC(=O)N1CCC[C@]12CC=CCCCC1(CCCC=CCCCCOC(=O)N3CCC(C(=O)N[C@@H](Cc4ccsc4)C(=O)N[C@@H](Cc4csc5ccccc45)C(=O)N[C@@H](CCC(N)=O)C(N)=O)(CC3)NC(=O)[C@H](CC(C)C)NC(=O)[C@H](Cc3ccccc3)NC(=O)[C@H](C)NC(=O)[C@H](C)NC(=O)[C@H](Cc3cccc(C(=O)O)c3)NC(=O)[C@H](CC(=O)O)NC1=O)NC(=O)[C@H](CC(C)(C)C)NC(=O)[C@H](CC(=O)O)NC2=O (stereo partly drawn) [I-2590, Ac-PL3-Asp-Npg-B5-Asp-3COOHF-Ala-Ala-Phe-Leu-SPip3-3Thi-BztA-Gln-NH2] | 25 |  | 18900 |
